Data: patent publication US12304881B2, “Trientine tetrahydrochloride and a method of preparation and a pharmaceutical composition thereof” (Yu-Jet Co., Ltd., priority 2022, dated 2025)
Counter-ions that a name gives are not always drawn.

Tests used:
[1] = as disclosed in CN102924289B; cited from earlier work

Row | Structure (SMILES) | stability, compared between hydrochloride salts [1] | stability (impurity by TLC) in words
1 | NCCNCCNCCN [TETA·2HCl, trientine dihydrochloride] | worse than that of TETA·4HCl | 
2 | NCCNCCNCCN [TETA·4HCl Form N, trientine tetrahydrochloride] |  | good enough
